The test system of series [1] is chloroquine-resistant W2 strain of Plasmodium falciparum. Nature of the series: Antiplasmodial activity, growth inhibition by flow cytometry. Type of series: cell-based. As for the experimental part:
The compounds were added from DMSO stocks; the maximum concentration of DMSO used was 0.1%. Controls without inhibitors included 0.1% DMSO. […] Fixed parasites were then transferred to 0.1% Triton X-100 in phosphate-buffered saline containing 1 nM YOYO-1 dye (Molecular Probes, MA, USA). Parasitemia was determined from dot plots (forward scatter vs fluorescence) acquired on a FACSort flow cytometer using Cell Quest software (Beckton Dickinson, NJ, USA). IC50 values for growth inhibition were determined from plots of percent control parasitemia over inhibitor concentration using the Prism 5.0 program (GraphPad Software, CA, USA), with data from duplicate experiments fitted by nonlinear regression.
The synthesized C4/C5substituted-isoindoline-1,3-diones-4-aminoquinolines were screened for their antiplasmodial activity against CQR (W2) strain of P. falciparum (Table 1).

The nature of series [2]: Cytotoxicity assay (resazurin cell viability). Type of series: cell-based. The following applies: African green monkey; mammalian Vero cells, 24 h incubation, resazurin. Here is the method: (§1) Cell viability was determined using Vero cells (ATCC, Sigma, Munich, Germany), which were grown in RPMI medium (Gibco) supplemented with 10% decomplemented fetal calf serum under 5% CO2 atmosphere.

The next series has as its system Vero cells. Nature of the series: Cytotoxicity assay (resazurin cell viability). In kind it is cell-based. The conditions noted are these: for SI (selectivity index): Vero cytotoxicity vs W2 antiplasmodial IC50. Here is the method:
as §1

The nature of series [3]: Heme-binding spectrophotometric titration (HypSpec). The following applies: 40% aq. DMSO, heme 12 μM.
Procedure: The resultant 40% DMSO solutions maintain the hematin solutions in the monomeric state at concentrations used. […] All the working solutions were kept in dark to avoid photo-sensitivity. Diluent solutions were prepared by dissolving 1 mL of 0.02 M HEPES and 4 mL of spectroscopic grade DMSO and made up to a final volume of 10 mL with ultrapure, HPLC grade Hipersolv water.
The mark [4] stands for this setting: Plasmodium falciparum, W2, 48 h, chloroquine-resistant W2 strain, 48 h incubation, read-out: IC50.
[5] abbreviates: Plasmodium falciparum, W2, chloroquine-resistant W2 strain, Figure 1, read-out: IC50.
Where [6] appears, read: mammalian Vero cells, 24 h incubation, resazurin, read-out: IC50 (μM cytotoxicity).
The mark [7] stands for this setting: chloroquine-resistant W2 strain, 48 h incubation, read-out: IC50.

Like-named read-outs stand apart in the source and are kept apart here.

For the compound `O=C1c2ccc(N3CCOCC3)cc2C(=O)N1CCNc1ccnc2cc(Cl)ccc12` [4m, 2-(2-((7-chloroquinolin-4-yl)amino)ethyl)-5-morpholinoisoindoline-1,3-dione], in series [1] (setting [4]), the IC50 worked out at 0.37 µM. Moreover, in series [2], the IC50 at 24 h was < 28.6 µM.
Consider `C[C@@H]1CC[C@H]2[C@@H](C)C(=O)O[C@@H]3O[C@@]4(C)CC[C@@H]1[C@]32OO4` [ART, Artemisinin, reference compound], for which the IC50 in series [1] (setting [4]) came to 0.005 µM; in series [1] (setting [5]), 0.0053 µM.
With `O=C1c2ccc(N3CCCCC3)cc2C(=O)N1CCCNc1ccnc2cc(Cl)ccc12` [4f, 2-(3-((7-chloroquinolin-4-yl)amino)propyl)-5-(piperidin-1-yl)isoindoline-1,3-dione], the IC50 was found to be 0.176 µM in series [1] (setting [4]) and 55.8 µM in the series with Vero cells (setting [6]). Also, the “SI (selectivity index)” value in the series with Vero cells came out at 317.
In the case of `O=C1c2ccc(N3CCN(CCO)CC3)cc2C(=O)N1CCCCCCNc1ccnc2cc(Cl)ccc12` [4t], in series [1] (setting [4]), the IC50 worked out at 0.015 µM. The IC50 at 24 h in series [2] was < 23.3 µM.
Take `O=C1c2cccc(N3CCOCC3)c2C(=O)N1CCCNc1ccnc2cc(Cl)ccc12` [4j]: the IC50 in series [1] (setting [4]) was 0.276 µM; in the series with Vero cells (setting [6]), 222 µM. Moreover, the “SI (selectivity index)” value in the series on Vero cells was 805.
Turning to `O=C1c2cccc(N3CCCCC3)c2C(=O)N1CCNc1ccnc2cc(Cl)ccc12` [4a], the IC50 in series [1] (setting [7]) was 0.158 µM; in the series on Vero cells, < 28.8 µM.
In the case of `O=C1c2ccc(N3CCOCC3)cc2C(=O)N1CCCNc1ccnc2cc(Cl)ccc12` [4n], the IC50 in series [1] (setting [4]) turned out to be 0.118 µM; in the series with Vero cells (setting [6]), 222 µM. Further, the “SI (selectivity index)” value in the series on Vero cells amounted to 1883.
Regarding `CCN(CC)CCCC(C)Nc1ccnc2cc(Cl)ccc12` (stereo not shown) [CQ, Chloroquine, reference compound], the IC50 in series [1] (Plasmodium falciparum, W2, 48 h) is 0.079 µM.
In the case of `O=C1c2ccc(N3CCCCC3)cc2C(=O)N1CCCCNc1ccnc2cc(Cl)ccc12` [4g], the IC50 in series [1] (setting [4]) is 0.077 µM. In addition, in series [2], the IC50 at 24 h was < 27 µM.
With `O=C1c2ccc(N3CCCCC3)cc2C(=O)N1CCCCCCNc1ccnc2cc(Cl)ccc12` [4h], the IC50 is 0.123 µM in series [1] (setting [7]) and < 25.5 µM in the series on Vero cells.
Regarding `O=C1c2ccc(N3CCN(CCO)CC3)cc2C(=O)N1CCCCNc1ccnc2cc(Cl)ccc12` [4s, 2-(4-((7-chloroquinolin-4-yl)amino)butyl)-5-(4-(2-hydroxyethyl)piperazin-1-yl)isoindoline-1,3-dione], the IC50 in series [1] (setting [4]) amounted to 0.014 µM. Also, the IC50 at 24 h in series [2] was < 24.6 µM.
Taken in the same sequence, the figures for `O=C1c2cccc(N3CCOCC3)c2C(=O)N1CCNc1ccnc2cc(Cl)ccc12` [4i] were 0.18 µM and < 28.6 µM.
Regarding `O=C1c2cccc(N3CCCCC3)c2C(=O)N1CCCNc1ccnc2cc(Cl)ccc12` [4b], the IC50 in series [1] (setting [4]) turned out to be 0.162 µM; in the series on Vero cells (setting [6]), 55.8 µM. Also, the “SI (selectivity index)” value in the series with Vero cells came out at 344.4.
As to `O=C1c2ccc(N3CCN(CCO)CC3)cc2C(=O)N1CCNc1ccnc2cc(Cl)ccc12` [4q], the IC50 in series [1] (setting [4]) turned out to be 0.044 µM. The IC50 at 24 h in series [2] was < 26 µM.
As to `O=C1c2ccc(N3CCN(CCO)CC3)cc2C(=O)N1CCCNc1ccnc2cc(Cl)ccc12` [4r, 2-(3-((7-chloroquinolin-4-yl)amino)propyl)-5-(4-(2-hydroxyethyl)piperazin-1-yl)isoindoline-1,3-dione], the values for the IC50 in series [1] (setting [5]) and in series [1] (setting [7]) were 0.0066 µM and 0.006 µM, respectively. In series [1] (antiplasmodial activity vs CQ), the “activity relative to CQ (fold higher)” value is reported as ~12 fold. For the same compound, the IC50 at 24 h in series [2] is < 25.3 µM. Also, the figures for the “Monomeric Heme log K” value in series [3] (pH 5.6 (MES buffer)) and in series [3] (pH 7.4 (HEPES buffer)) were 5.41 and 5.14, respectively.
For the compound `O=C1c2cccc(N3CCCCC3)c2C(=O)N1CCCCCCNc1ccnc2cc(Cl)ccc12` [4d, 2-(6-((7-chloroquinolin-4-yl)amino)hexyl)-4-(piperidin-1-yl)isoindoline-1,3-dione], the half-inhibitory concentration (IC50) in series [1] (setting [4]) was 0.075 µM; in the series on Vero cells (setting [6]) it was 204 µM. Also, the “SI (selectivity index)” value in the series on Vero cells stood at 2720.
`O=C1c2ccc(N3CCOCC3)cc2C(=O)N1CCCCNc1ccnc2cc(Cl)ccc12` [4o, 2-(4-((7-chloroquinolin-4-yl)amino)butyl)-5-morpholinoisoindoline-1,3-dione]: the IC50 in series [1] (setting [4]) is 0.049 µM. Also, in series [2], the IC50 at 24 h was < 26.9 µM.
As for `O=C1c2cccc(N3CCOCC3)c2C(=O)N1CCCCCCNc1ccnc2cc(Cl)ccc12` [4l], the IC50 in series [1] (setting [4]) is 0.025 µM; with Vero cells (setting [6]), 50.8 µM.
For `O=C1c2cccc(N3CCOCC3)c2C(=O)N1CCCCNc1ccnc2cc(Cl)ccc12` [4k, 2-(4-((7-chloroquinolin-4-yl)amino)butyl)-4-morpholinoisoindoline-1,3-dione], the IC50 came out at 0.071 µM in series [1] (setting [4]) and 108 µM with Vero cells (setting [6]). The “SI (selectivity index)” value with Vero cells worked out at 1517.
Regarding `O=C1c2ccc(N3CCCCC3)cc2C(=O)N1CCNc1ccnc2cc(Cl)ccc12` [4e], the values for the IC50 (in series [1] (setting [7]); in the series on Vero cells) were 0.163 µM and < 28.8 µM, respectively.
Take `O=C1c2cccc(N3CCCCC3)c2C(=O)N1CCCCNc1ccnc2cc(Cl)ccc12` [4c, 2-(4-((7-chloroquinolin-4-yl)amino)butyl)-4-(piperidin-1-yl)isoindoline-1,3-dione]: the results for the IC50 (in series [1] (setting [4]); in series [1] (setting [7]); in the series with Vero cells (setting [6])) were 0.05 µM, 0.051 µM and 54.1 µM, respectively. Also, the “SI (selectivity index)” value with Vero cells worked out at 1060.7.
As to `O=C1c2ccc(N3CCOCC3)cc2C(=O)N1CCCCCCNc1ccnc2cc(Cl)ccc12` [4p], the IC50 in series [1] (setting [4]) came out at 0.019 µM. Also, the IC50 at 24 h in series [2] is < 25.4 µM.

The record behind these values is article PMC7099627, “Design, synthesis, heme binding and density functional theory studies of isoindoline-dione-4-aminoquinolines as potential antiplasmodials” (Future Medicinal Chemistry, 2019).
